Ends that are not written are not given here.
Assay: In vitro saturation of lipid A binding site by peptide
Details: stoichiometric saturation

Substance: Lys-Thr-Lys-Cys-Lys-Phe-Leu-Lys-Lys-Cys (KTKCKFLKKC; also: cyclic, ring type not given here) [SAEP2]
- affinity of binding to lipid A binding site: high affinity

— patent publication US6951652B2, “Vaccine for prevention of gram-negative bacterial infections and endotoxin related diseases” (BioSynth S.r.l., priority 1998, dated 2005)
